Tests used:
[1] = tested on: peptide probe immobilized on carboxyl-GO chip; experiment: SPR selectivity test with interfering proteins, spiked 10% serum; type: binding; settings: protein 500 pM, 60 μL/min, measured six times
[2] = tested on: peptide probe immobilized on carboxyl-GO chip; experiment: SPR selectivity test with interfering proteins, PBS buffer; type: binding; settings: for interference signal: 500 pM, carboxyl-GO-based SPR aptasensor, PBS and spiked 10% serum; for average SPR angle shift: protein 500 pM, PBS buffer, 60 μL/min, measured six times
hCG protein [3] = target: T1, hCG protein (Homo sapiens, UniProt P01215+P0DN86); experiment: SPR kinetics of peptide-hCG binding, carboxyl-GO chip, clinical serum samples
T1 sequence (P01215 25-116, other chains not shown): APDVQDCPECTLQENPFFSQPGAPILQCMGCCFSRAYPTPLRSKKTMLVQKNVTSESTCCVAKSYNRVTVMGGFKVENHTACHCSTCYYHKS

hCG protein [4] = target: T1, hCG protein; experiment: SPR kinetics of peptide-hCG binding, GO-based chip, PBS buffer; settings: hCG 10 pM-1 nM, 30 μL/min, 1:1 Langmuir model

Molecule: pregnancy-associated plasma protein A [PAPP-A]
- average SPR angle shift [1]: 2.42 m^o
- interference signal [2]: close to that of a blank solution
- average SPR angle shift [2]: 1.37 m^o

Molecule: pregnancy-associated plasma protein A2 [PAPP-A2]
- average SPR angle shift [1]: 2.51 m^o
- interference signal [2]: close to that of a blank solution
- average SPR angle shift [2]: 2.39 m^o

Molecule: H-PPLRINRHILTR-OH [peptide]
- binding constant KA (hCG protein [3]; serum FDSW-1, 19 weeks): 7.22e+10 M⁻¹
- binding constant KA (hCG protein [3]; serum FDSW-2, 14 weeks): 9.39e+10 M⁻¹
- binding constant KA (hCG protein [3]; serum FDSW-3, 12 weeks): 2.033e+11 M⁻¹
- binding constant KA (hCG protein [3]; serum FDSW-4, 12 weeks): 5.71e+10 M⁻¹
- binding constant KA (hCG protein [3]; serum FDSW-5, 16 weeks): 5.14e+10 M⁻¹
- binding constant KA (hCG protein [3]; serum FDSW-6, 17 weeks): 1.39e+11 M⁻¹
- binding constant KA (hCG protein [3]; serum NPW-1, 15 weeks): 2.819e+11 M⁻¹
- binding constant KA (hCG protein [3]; serum NPW-2, 12 weeks): 2.763e+11 M⁻¹
- binding constant KA (hCG protein [3]; serum NPW-3, 14 weeks): 1.28e+10 M⁻¹
- binding constant KA (hCG protein [3]; serum NPW-4, 17 weeks): 1.48e+10 M⁻¹
- KA (hCG protein [4]): 1.41e+10 M⁻¹
- ka (hCG protein [4]): 7.32 ×10^6 M^−1S^−1
- kd (hCG protein [4]): 5.22 ×10^−4 S^−1

Molecule: bovine serum albumin [BSA]
- average SPR angle shift [1]: 2.60 m^o
- interference signal [2]: close to that of a blank solution
- average SPR angle shift [2]: 1.31 m^o

B1: human cytokeratin 19 (protein, UniProt P08727 1-400, looked up)
Keratin, type I cytoskeletal …: MTSYSYRQSSATSSFGGLGGGSVRFGPGVAFRAPSIHGGSGGRGVSVSSARFVSSSSSGAYGGGYGGVLTASDGLLAGNEKLTMQNLNDRLASYLDKVRALEAANGELEVKIRDWYQKQGPGPSRDYSHYYTTIQDLRDKILGATIENSRIVLQIDNARLAADDFRTKFETEQALRMSVEADINGLRRVLDELTLARTDLEMQIEGLKEELAYLKKNHEEEISTLRGQVGGQVSVEVDSAPGTDLAKILSDMRSQYEVMAEQNRKDAEAWFTSRTEELNREVAGHTEQLQMSRSEVTDLRRTLQGLEIELQSQLSMKAALEDTLAETEARFGAQLAHIQALISGIEAQLGDVRADSERQNQEYQRLMDIKSRLEQEIATYRSLLEGQEDHYNNLSASKVL
- average SPR angle shift [1]: 1.74 m^o
- interference signal [2]: close to that of a blank solution
- average SPR angle shift [2]: 1.65 m^o

From paper PMC7594198 (International Journal of Nanomedicine, 2020)
